Measurements published in patent US20120225093A1, “Abrogating HIV-1 Infection via Drug-Induced Reactivation of Apoptosis” (UNIVERSITY OF MEDICINE AND DENTISTRY OF NEW JERSEY, priority 2010, published 2012).

How the values were obtained:
[1] = test system: bioavailable intracellular iron; assay: IRE-controlled luciferase reporter in 293T cells; assay type: cell-based, human; conditions: 12 hr
Experimental: 293T cells (10^5 cells/well of 12-well microplates) were seeded and transfected 20 hr later with a firefly luciferase (Luc)-expressing reporter plasmid and corresponding Renilla luciferase (Ren)-expressing reference plasmid using TransFectin™ (Bio-Rad, Hercules, Calif.). The bioavailable intracellular iron concentration was monitored using plasmids obtained from B. Galy and M. W. Hentze (EMBL, Heidelberg). Plasmid pcFIF-Luc contains the mouse ferritin H 5′-UTR with an iron response element (IRE) controlling Luc; pcFIRo-Ren is a similar construct expressing a mutated non-functional IRE fused to Ren. The activity of the HIV-1 promoter was monitored using the pNL4-3-Luc E molecular clone (Chen et al. (1994) J Virol 68: 654-660.), based on the recombinant infectious proviral clone that contains DNA from HIV isolates NY5 (5′ half) and IIIB (3′ half). This plasmid, obtained from D. Baltimore (Caltech, Pasadena), contains the Luc gene in place of 102 nucleotides from nef and 6 nucleotides from env. pCMV-Ren (Promega, Madison, Wis.) was used as reference for pNL4-3-Luc E. Compounds were added at the time of transfection. Cells were harvested 12 hr later, washed with phosphate-buffered saline, and lysed for the dual luciferase assay (Dual Luciferase™ Reporter Assay System; Promega, Madison, Wis.). Luc data were normalized to the Ren internal controls (Hogue et al. (2009) Retrovirology 6: 90.).
Both CPX and DEF are hydroxypyridinones with vicinally positioned oxygen atoms that mediate bidentate interaction with metal ions, in particular Fe^3+ (FIG. 11A). To evaluate the effect of drugs on the intracellular iron pool and on HIV-1 gene expression, transient expression assays in human 293T cells were exploited. Bioavailable intracellular iron was measured using a construct in which an iron-responsive element (IRE) controls luciferase expression, and HIV-specific transcription was assayed in parallel using an HIV-1 molecular clone that expresses luciferase reporter under the direction of the retroviral promoter. CPX and DEF were compared with the medicinal chelator deferoxamine (DFOX) and with the CPX fragment Agent P2, which consists of the metal-binding 1,2-HOPO domain of CPX but lacks the cyclohexyl moiety (FIG. 11A).

[2] = test system: HIV-1; assay: Acute PBMC infection model: p24 and HIV-1 RNA in supernatant; assay type: cell-based; conditions: for p24 in culture (virus production, p24 capture assay): HIV-infected PBMCs co-cultured with uninfected PBMCs, CPX 30 μM, DEF 250 μM, P2 30 μM added at 48 hr, followed to 144 hr; for HIV-1 RNA production / p24 production: isolate #990,135, compound added at 48 hr, 30 or 60 μM
Experimental: Using an institutional review board (IRB)-approved protocol, PBMCs were isolated from the blood of healthy donors and stimulated overnight with phytohemagglutinin (PHA) and human IL-2. Stimulated cells were pelleted and resuspended for culture at a final concentration of 0.5×10^6 cells/ml in PHA-free RPMI 1640 medium containing 10% fetal calf serum (v/v), 100 units/ml penicillin G, 100 μg/ml streptomycin, 2 mM […], and 3.5 ng/ml human IL-2 (Medium B). Cultures were incubated at 37° C., 5% CO2, and 95% humidity.
Using an IRB-approved protocol, two donors were recruited to generate clinical viral isolates. One (#990,135) was highly immunocompromised despite on-going combination antiretroviral therapy (cART) (CD4 count <5%; HIV RNA in plasma at log10 5.5 copies/ml). The second (#990,010) was moderately to severely immunocompromised on cART (CD4 count 14-26%; HIV RNA in plasma at log10 3.8-5.0 copies/ml). For infection, 5×10^6 uninfected stimulated PBMCs were co-cultured with 10×10^6 PBMCs from one of the HIV-infected donors in Medium B. On day 3, half of the supernatant was removed and replenished with an equal volume of fresh Medium B. On day 7, the medium was likewise replenished and 7.5×10^6 stimulated uninfected PBMCs were added. On days 10, 17, and 24, half of the supernatant was replenished. On days 14, 21, and 28, stimulated uninfected PBMCs were added. Cells were harvested when p24 reached 250 pg/ml, cryopreserved in freezing medium (90% fetal calf serum, 10% dimethyl sulfoxide), and stored in liquid nitrogen as infected PBMC stock. Cell-free supernatants were stored at −80° C.
Uninfected PBMCs were co-incubated with infected PBMC stock in 24-well microplates at 2 ml/well Medium B, at a 10:1 ratio of uninfected-to-infected cells, and a total cell number of 1×10^6. Cultures were maintained and assayed for 6 consecutive days. […] Leaving the cell layer undisturbed, half the medium in each well was replenished every day, with concurrent adjustment of compound concentration. On each day during the 6-day experiments, a set of wells was harvested: the cells were processed for determination of viability and apoptosis, and the cell-free supernatants were stored at −80° C. for p24 and viral RNA measurements. Experiments were performed at least in duplicate and repeated at least twice.
p24 core antigen in the supernatant was quantified by ELISA (Retrotek HIV-1 p24™; ZeptoMetrix Corp.; Buffalo, N.Y.). HIV-1 RNA copy number in the supernatant was determined with a PCR-based and FDA-approved assay (Amplicor HIV-1 Monitor™; Roche Diagnostics Corp.; Indianapolis, Ind.). IFN-γ and IL-10 in the supernatant were determined by cytometric bead array (Human Th1/Th2 Cytokine Kit II™; BD Biosciences Pharmingen, San Jose, Calif.).
To examine the effect of CPX and DEF on HIV-1 propagation, uninfected PBMCs from healthy donors were co-cultured with HIV-infected PBMCs and virus production was monitored by the p24 capture assay. In untreated cultures, p24 was first detected at 96 hr and increased up to 144 hr (FIG. 1C; Control). […] The profound inhibition is due, at least in part, to activation of apoptosis at later stages of infection. These concentrations are within the clinically relevant range and sufficient to block DOHH activity and eIF5A modification (see below).
To examine the antiretroviral action of CPX in a clinic-derived model, PBMCs infected with patient isolates of HIV-1 were used. Naïve freshly isolated PBMCs from a single donor were infected by co-cultivation with HIV-infected, HLA-nonidentical PBMCs at an initial uninfected/infected cell ratio of 10:1. CPX was added and cells were maintained and monitored for six days. Half of each culture supernatant was replenished daily with CPX-containing or CPX-free medium as appropriate. […]

[3] = isolate #990,010, CPX 30 μM added 12 hr after inoculation, six days

Row | SMILES | reduction of intracellular iron (IRE-dependent luciferase) [1] [%] | p24 in culture (virus production, p24 capture assay) [2] | HIV-1 p24 [2, 3] | extracellular HIV-1 RNA [2, 3] | HIV-1 RNA production [2] | p24 production [2] | reduction of intracellular iron (IRE-dependent luciferase) ([1]; DFOX 15 μM)
1 | Cc1cc(C2CCCCC2)n(O)c(=O)c1 [CPX, 6-cyclohexyl-1-hydroxy-4-methylpyridin-2[1H]-one] | 80 | reduced p24 to baseline levels | remained undetectable | did not increase at any time over the initial infectious dose | inhibited the production of HIV-1 RNA | completely inhibited p24 production | –
2 | Cc1c(O)c(=O)ccn1C [DEF, 3-hydroxy-1,2-dimethylpyridin-4(1H)-one] | ~60 | reduced p24 to baseline levels | – | – | – | – | –
3 | Cc1ccn(O)c(=O)c1 [Agent P2, 1-hydroxy-4-methylpyridin-2[1H]-one] | – | did not impede p24 production | – | – | did not curtail the accumulation of p24 or HIV-1 RNA | did not curtail the accumulation of p24 or HIV-1 RNA | no effect on either IRE-dependent or HIV-encoded luciferase expression
